Measurements published in PubChem BioAssay (NCI).
Values joined by “and” are separate entries in the source; they are usually repeats but may differ in a detail not shown here. Equal values may be shown once.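 Test compounds were applied to cells in 96-well plates for 48 hours at 5 doses. Here, GI50 denotes the concentration required for 50% inhibition of growth. TGI: concentration producing complete growth inhibition.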

Key:
Assay in all cases: NCI-60 cell line screen, 48 h
SR leukemia = system: SR leukemia
BT-549 breast = system: BT-549 breast
U251 CNS = system: U251 CNS
SW-620 colon = system: SW-620 colon
MCF7 breast = system: MCF7 breast
HCT-116 colon = system: HCT-116 colon
UACC-62 melanoma = system: UACC-62 melanoma
HCT-15 colon = system: HCT-15 colon
OVCAR-4 ovarian = system: OVCAR-4 ovarian
SN12C renal = system: SN12C renal

SMILES | GI50 (SR leukemia) [µM] | TGI (BT-549 breast) [µM] | GI50 (U251 CNS) [µM] | GI50 (SW-620 colon) [µM] | TGI (MCF7 breast) [µM] | GI50 (HCT-116 colon) [µM] | GI50 (UACC-62 melanoma) | GI50 (HCT-15 colon) [µM] | TGI (HCT-15 colon) [µM] | TGI (SR leukemia) [µM] | GI50 (BT-549 breast) [µM] | TGI (U251 CNS) [µM] | TGI (SW-620 colon) [µM] | GI50 (MCF7 breast) [µM] | GI50 (OVCAR-4 ovarian) [µM] | TGI (OVCAR-4 ovarian) [µM] | GI50 (SN12C renal) [µM] | TGI (SN12C renal) [µM] | TGI (HCT-116 colon) [µM] | TGI (UACC-62 melanoma) [µM]
CCN(CC)CCN1C(=O)c2c(c3c4cccc(Cl)c4n(C4OC(CO)C(OC)C(O)C4O)c3c3[nH]c4c(Cl)cccc4c23)C1=O (centres undefined) | < 0.0001 | 1.66 | < 0.0001 | < 0.0001 | 0.199 | < 0.0001 | 0.000111 µM and < 0.0264 µM and < 0.01 µM | – | – | – | – | – | – | – | – | – | – | – | – | –
C/C=C(/C)C(=O)OC1C=C(CO)C(=O)C(OC(=O)C2(C)OC2C)C1C(C)C (centres undefined) | 0.778 | 4.35 | 1.52 | 1.98 | 4.14 | 1.13 | 1.33 µM | 1.4 | 3.09 | 8.2 | 2.02 | 2.85 | 4.16 | 1.19 | 1.93 | 3.91 | 1.45 | 2.99 | 2.48 | 2.68
COc1cc(C2C=C(C)N=C3SC=C(C)N32)cc(OC)c1OC (centres undefined) | 0.249 | 2.09 | 0.671 | 0.516 | 11.9 | 0.171 | 0.473 µM | 0.246 | 0.822 | > 100 | 0.531 | 2.79 | 9.43 | 0.333 | 3.99 | > 100 | 2.23 | 7.53 | 0.336 | 1.87
CN1CCC(=C(c2ccc(Cl)cc2)c2ccccn2)CC1 | > 100 | > 100 | > 100 | > 100 | > 100 | 66.5 | 33.3 µM | > 100 | > 100 | > 100 | 79.8 | > 100 | > 100 | > 100 | > 100 | > 100 | > 100 | > 100 | > 100 | > 100
N#Cc1c(-c2ccccc2)nc(SCC(O)CN2CCOCC2)nc1N1CCOCC1 (centres undefined) | 32.2 | > 100 | 24.4 | 51.9 | 8.51 | 32.4 | 3.55 µM | 9.16 | > 100 | > 100 | 7.26 | > 100 | > 100 | 0.098 | 16.3 | > 100 | 18.9 | > 100 | > 100 | > 100
CN(C)C/C=C/C(=O)Nc1ccc(C(=O)Nc2cccc(Nc3ncc(Cl)c(-c4c[nH]c5ccccc45)n3)c2)cc1 | 0.017 | 0.42 | 0.0238 | 0.031 | – | < 0.0131 | 0.043 µM | 0.229 | > 100 | > 100 | 0.0336 | > 38.2 | 11.3 | < 0.0116 | 0.021 | – | 0.0249 | – | – | 0.259
Oc1ccc(/C=N/NC(=S)Nc2ccccc2)nc1 | 0.582 | > 100 | 0.65 | 2.07 | > 100 | 1.42 | 1.55 µM | 0.407 | > 100 | > 100 | 1.7 | 81.8 | > 100 | 2.73 | 0.579 | > 100 | 1.07 | > 100 | > 100 | 4.95
CCN1C[C@@H](C)n2c(c(O)c3c(=O)n(Cc4ccc(F)c(Cl)c4)nc(C(=O)NC)c32)C1=O | 3.22 | > 100 | – | 3.11 | 65.7 | 3.21 | – | 2.57 | 8.28 | 14.8 | 3.49 | – | > 100 | 3.26 | 3.18 | 44.6 | 3.08 | > 100 | > 100 | –
CCCCNC(=O)CC1=C(C)/C(=C/c2[nH]c(-c3ccc[nH]3)cc2OC)N=C1C | 1.87 | 19.9 | 2.86 | 3.23 | 9.39 | – | – | 1.88 | 4.12 | 5.43 | 3.74 | 12.1 | 13.9 | 2.7 | 2.12 | 19.2 | – | – | – | –
O=C(CC(O)(C(F)(F)F)C(F)(F)F)c1cccs1 | – | > 10 | – | – | > 10 | – | – | – | > 10 | > 10 | – | > 10 | > 10 | – | – | > 10 | – | > 10 | > 10 | > 10
N#Cc1ncc(-c2ccc(C(F)(F)F)cc2)c(NC2CCCCCC2)n1 | 16.6 | > 100 | – | 8.64 | > 100 | 5.25 | 24.5 µM | 8.53 | > 100 | > 100 | 29.1 | – | > 100 | 5.68 | 20.1 | > 100 | 34.8 | > 100 | > 100 | > 100
CN1C(=O)[C@@H](CC2CCCC2)N(C2CCCC2)c2nc(Nc3cc(Cl)c(O)c(Cl)c3)ncc21 | 13 | 53.2 | 21.6 | 28.2 | > 100 | 13.1 | 11.1 µM | 14.6 | 56.2 | 62.1 | 18.2 | 86.9 | > 100 | 15.2 | 25.8 | > 100 | 21.4 | > 100 | 30.4 | 27.4
COc1ccc(-c2cc(-c3ccc(Cl)cc3)nc(SCCCC(=O)NO)n2)cc1OC | 0.354 | 12 | 0.799 | 0.578 | 5.39 | 0.433 | 1.01 µM | 0.337 | 1.56 | > 100 | 1.94 | 7.34 | 2.76 | 1.63 | 0.889 | 12.3 | 0.819 | 5.64 | > 100 | 2.86
Cc1c(Br)c(Br)c2c3c1nc(N1CCNCC1)n3CCC2 | 1.6 | 20.2 | 1.86 | 1.55 | 3.49 | 1.73 | 1.62 µM | 1.69 | 3.33 | 5.24 | 5.36 | 4.11 | 3.09 | 1.75 | 2.46 | 6.1 | 1.42 | 2.85 | 3.19 | 3.08
Cn1ccc(S(=O)(=O)N2CCC[C@H](Nc3nccc(-c4c(-c5cccc(O)c5)nc5occn45)n3)C2)n1 | 8.19 | 52.9 | 22.3 | 15.9 | 55.3 | 3.93 | 0.0643 µM | 22.3 | > 93.8 | 46.2 | 12.7 | > 100 | > 64.2 | 12.8 | 14.5 | > 85.8 | 8.01 | 51.7 | 32.4 | 3.4
CN(C)Cc1ccc(O)c(CN(C)C)n1 | – | > 100 | – | – | > 100 | – | – | – | > 100 | > 100 | – | > 100 | > 100 | – | – | > 100 | – | > 100 | > 100 | > 100
CC1(C)CCC2(C(=O)O)C(O)CC3(C)C(=CCC4C5(C)CCC(OC6OCC(O)C(O)C6OC6OCC(O)C(O)C6OC6OCC(O)C(OC7OC(CO)C(O)C(O)C7O)C6O)C(C)(C)C5CCC43C)C2C1 (centres undefined) | – | 86.4 | – | – | > 100 | – | – | – | > 100 | 37.9 | – | > 100 | > 100 | – | – | 88.7 | – | 76.5 | > 100 | > 100
CCOC(=O)C(Cc1ccccc1)n1c(O)c(/C=N/c2ncc(Cc3ccc(Cl)cc3Cl)s2)sc1=S (centres undefined) | 3.98 | 8.23 | 2.51 | 3.45 | > 100 | 2.03 | 1.63 µM | 0.548 | > 100 | > 100 | 2.37 | 15 | > 100 | 2.36 | 3.22 | > 100 | 1.59 | > 100 | 11.5 | 6.37
CCN1CCCCCCCCCC(=N/O)/C(=N\O)C1 | – | > 100 | – | – | > 100 | – | – | – | > 100 | > 100 | – | > 100 | > 100 | – | – | – | – | > 100 | > 100 | –
Cc1[nH]c(N)nc(=S)c1CCCNc1ccccc1 | – | > 100 | – | – | > 100 | – | – | – | > 100 | 96.9 | – | > 100 | > 100 | – | – | > 100 | – | > 100 | > 100 | > 100
COC(=O)C1C(=O)C(C(=O)OC)C2CCC1N2C (centres undefined) | – | 27.3 | – | – | > 100 | – | – | – | > 100 | > 100 | – | > 100 | > 100 | – | – | > 100 | – | > 100 | > 83.2 | > 100
Cc1cc(NS(=O)(=O)c2ccc(-c3cnc(C4CC4)o3)cc2)ccc1Cl | 0.0919 | 16.6 | 0.368 | 0.13 | 12.2 | 0.264 | 0.117 µM | 0.116 | 12.7 | 45.6 | 1.06 | 14.9 | 15 | 0.0708 | 1.86 | 19.5 | 0.961 | 13.9 | 13.4 | 12.3
CC(=O)CCC[C@@H](C)[C@@H]1O[C@H]([C@@]2(C)CCC(=O)O2)CC2[C@H]1OC(=O)C21CC1 (some centres undefined) | 29.4 | 63.4 | 91.3 | > 100 | > 100 | > 100 | > 100 µM | > 100 | > 100 | > 100 | 25.5 | > 100 | > 100 | 22.3 | > 100 | > 100 | > 100 | > 100 | > 100 | > 100
C=C(CC)C(=O)c1ccc(OCC(=O)O)c(Cl)c1Cl | – | 17.2 | – | – | 20.8 | – | – | – | 58.8 | > 100 | – | 29.7 | 34.2 | – | – | 43.6 | – | 47.5 | > 55.1 | 30.3
Cc1ccc(/C=C(/C#N)n2nnc3cccc(F)c32)cc1 | 0.122 | 8.99 | 0.489 | 0.354 | 16.6 | 0.379 | 0.32 µM | 0.24 | 8.69 | > 35.5 | 0.634 | 14.4 | 5.53 | 0.466 | 1.01 | 33.1 | 0.485 | 12.8 | 6.54 | 11.1
N#CC(Cl)CS(=O)(=O)c1ccccc1 (centres undefined) | – | 30.9 | – | – | 32.8 | – | – | – | 5.38 | 12.1 | – | 44.7 | 3.75 | – | – | 4.24 | – | 31.7 | 12.2 | 26.5
CC(C)(Oc1cccc(N2CCC[C@@H](C(=O)N(Cc3ccc(-c4cn[nH]c4)cc3)C3CC3)C2)c1)C(=O)N1CCNCC1 | 7.87 | 26.6 | 12.6 | 15.5 | 25.4 | 12.6 | – | 14.6 | 28.9 | 28.6 | 13.3 | 26.3 | 31.5 | 11.6 | 11.1 | 25.2 | 12.1 | 25.3 | 27.8 | –
Cc1ccc2c(-c3ccnc(Nc4cccc(C(F)(F)F)c4)n3)c(-c3ccccc3)nn2n1 | – | > 24 | 10.3 | 7.81 | > 25 | 4.32 | 6.38 µM | 5.34 | > 19 | – | 15 | > 25 | > 22.5 | 2.85 | 12 | > 25 | 3.82 | > 15.5 | > 12.2 | > 16.1
NC(=O)NC(=O)Nc1ccc(Br)cc1 | – | > 100 | – | – | > 100 | – | – | – | > 65.4 | > 100 | – | > 52.3 | > 29.4 | – | – | > 38.5 | – | > 100 | > 49.6 | –
